Laboratory results: US5227163A, “Lice-repellant compositions” (priority 1992, dated 1993)

Tested on: lice
Assay: Standard in vitro test on filter paper (petri-dish lice repellency)
Conditions: 10 min, 20±3° C.
Protocol: Screening tests were performed on many substances of the following groups: terpenes (hydrocarbons), terpenoid alcohols, terpenoid esters, terpenoid aldehydes and ketones, essential oils which contain terpenoids and perfumes which contain terpenoids, as well as various general insect repellents, for lice-repellency. Each experiment included exposure of the lice to different concentrations of the tested substance, and measuring the dose response of those materials.
A petri-dish method was used to examine the repellency of the solutions for lice. A filter paper (Whatman No. 4, 5.5 cm in diameter) was secured in a petri-dish. A 100 μl portion of the test solution was placed on a corduroy patch (1.5 cm^2). The material was allowed to dry for 30 min. at room temperature (20±3° C.) and the patch was placed at the periphery of the petri-dish. A patch treated with a control solution (96% Ethanol) was placed on the opposite side of the dish. Twenty female lice which had been fed 24 hours previously were placed in the middle of the dish. A box was placed over the dish and it was covered with a dark cloth in order to keep the test area in the dark. The experiment was carried out at room temperature (20°±3° C.) and lasted 10 min. The number of lice on the treated and controlled patches as well as on the area between the patches was recorded in a protocol. The experiment was repeated three times for each sample.
% repellency was calculated by the following formula:
where: T=number of lice on the treated patch
C=number of lice on the untreated patch
The following terms were recorded:
RC80 =Concentration giving 80% repellency.
RC50 =Concentration giving 50% repellency.
RD80 =mg/cm^2 giving 80% repellency.
RD50 =mg/cm^2 giving 50% repellency.

| Molecule | RC50 (Concentration giving 50% repellency) [%] | RC80 (Concentration giving 80% repellency) [%] | RD80 (mg/cm^2 giving 80% repellency) [mg/cm^2] | RD50 (mg/cm^2 giving 50% repellency) [mg/cm^2] |
| --- | --- | --- | --- | --- |
| CC(C)=C1CC[C@@H](C)CC1=O [PULEGONE] | 0.400 | 0.700 | 0.490 | – |
| CC(C)=CCCC(C)CCO (stereo not drawn) [β-CITRONELLOL, β-citronellol] | 0.020 | 0.070 | 0.049 | – |
| IONONE | 0.250 | 0.600 | 0.420 | 0.170 |
| CC1=CCC(O)(C(C)C)CC1 (centres unmarked) [terpinen-4-ol] | 0.020 | 0.090 | 0.063 | – |
| CC1=CCC2C(C1)C2(C)C (centres unmarked) [CARENE] | 1.000 | 2.000 | 1.400 | – |
| C=C1CCC2CC1C2(C)C (stereo not drawn) [β PINENE] | 0.200 | 1.100 | 0.770 | – |
| CC1CCC(C(C)C)C(O)C1 (centres unmarked) [MENTHOL, menthol] | 0.030 | 0.150 | 0.105 | – |
| CC1=CC=C(C(C)C)CC1 | 0.900 | 1.500 | 1.050 | – |
| CC(C)=CCC/C(C)=C\CO [NEROL, nerol] | 0.500 | 0.800 | 0.560 | – |
| CC(=O)O[C@@H]1C[C@H]2CC[C@]1(C)C2(C)C (racemic) [ISO BORNYL ACETATE] | 0.600 | 0.800 | 0.560 | – |
| C=C(C)[C@@H]1CC=C(C)CC1 [- LIMONENE] | 3.000 | 4.000 | 2.800 | – |
| CC1=CC(O)C2CC1C2(C)C (stereo not drawn) [Cis VERBENOL, cis-verbenol] | 1.000 | 2.000 | 1.400 | 0.700 |
| C=C(C)[C@@H]1CC=C(CO)CC1 [PERILLIL ALCOHOL, perillyl alcohol] | 0.010 | 0.030 | 0.020 | – |
| CC1(C)C2CCC(CO)C1C2 (stereo not drawn) [Cis MYRTANOL] | 0.600 | 1.000 | 0.700 | 0.420 |
| CC1CCC(C(C)C)C(OC(=O)C(C)O)C1 (centres unmarked) [MENTHYL LACTATE, menthyl lactate] | 0.050 | 0.100 | 0.070 | – |
| CC1C(O)CC2CC1C2(C)C (centres unmarked) [ISOPINO-CAMPHEOL, iso-pinocampheol] | 0.200 | 0.300 | 0.210 | 0.140 |
| C=C(C)C1CC=C(C)C(OC(=O)CC)C1 (centres unmarked) [CARVYL PROPRIONATE, carvyl propionate] | 0.200 | 0.600 | 0.420 | 0.140 |
| C=C(C)C1CC=C(C)[C@@H](O)C1 (some centres unmarked) [CARVEOL, carveol] | 0.600 | 1.500 | 1.050 | – |
| CC1(C)C2CC=C(CO)C1C2 (centres unmarked) [MYRTENOL, myrtenol] | 0.500 | 0.900 | 0.630 | 0.350 |
| C=C(C)C1CCC(C)C(OC(C)=O)C1 (centres unmarked) [DIH[…]] | 0.150 | 0.300 | 0.210 | 0.105 |
| C=C(C)[C@@H]1CC[C@@H](C)C[C@H]1O [ISOPULEGOL, isopulegol] | 0.500 | 0.800 | 0.560 | – |
| C=CC(C)CCCC(C)(C)O (centres unmarked) [DIHYDRO MYRCENOL, dihydro-myrcenol] | 0.600 | 0.800 | 0.560 | – |
| C=C(C)C1CCC(C)C(O)C1 (centres unmarked) [DIHYDRO CARVEOL, dihydrocarveol] | 0.400 | 0.900 | 0.630 | 0.280 |
| CC(C)=CCCC(C)=CC=O [CITRAL] | 0.300 | 0.600 | 0.420 | – |
| CC(C)=CCC/C(C)=C/CO [GERANIOL, geraniol] | 0.005 | 0.020 | 0.014 | – |
| C=CC(C)(O)CCC=C(C)C (centres unmarked) [LINALOOL, linalool] | 0.020 | 0.080 | 0.056 | – |
| C=C(C)[C@H]1CC=C(C)CC1 [+ LIMONENE] | 2.000 | 3.000 | 2.100 | – |
| C=C(C)C1CCC(C)C(=O)C1 (centres unmarked) [DIHYDRO CARVONE] | 0.200 | 0.500 | 0.350 | – |
